# From patent publication US8153589B2, “JNK3 as a target for the treatment of angiogenesis-related diseases” (The University of North Carolina at Chapel Hill, priority 2009, dated 2012)
# Like-named read-outs stand apart in the source and are kept apart here.
# Assays:
# MKP7 [1] = test: Biotin switch assay, MKP7 S-nitrosylation by NO donors in lysates of transfected HEK293T cells; assay type: biochemical
# Method: (§1) Experiments were performed following the methods previously described by Dr. Stamler's laboratory (39). Cell lysates containing Flag or Myc-tagged MKP7 protein were treated with the indicated concentrations of GSNO followed by the addition of 2 volumes of HEN buffer and freshly prepared S-methyl methanethiosulfonate (10% v/v in N,N-dimethylformamide) and SDS (25% v/v) to final concentrations of 0.1 and 2.5%, respectively. Following frequent vortexing at 50° C. for 1 hour, proteins were precipitated with 3 volumes of acetone at −20° C. for 30 min. The proteins were recovered by centrifugation at 5,000×g for 5 min, followed by gentle rinsing of the pellet with 3×1 ml acetone. The pellets were then resuspended in 240 μl of HEN buffer containing 1% SDS. The resuspended protein was precipitated, rinsed and resuspended once more. For labeling, the blocked samples were mixed with 0.1 volume of biotin-HPDP (2.5 mg/ml in Me2SO) and 0.1 volume of HEN (control) or freshly prepared sodium Ascorbic acid in HEN buffer. Labeling reactions were performed in the dark at room temperature for 1 h unless otherwise indicated. To detect an MKP7 SNO protein from cells or lysates, the labeling reaction was acetone-precipitated as previously described. The washed pellet was resuspended in 250 μl of HEN/10 (HEN diluted 10-fold into H2O) containing 1% SDS, followed by addition of 750 μl of neutralization buffer (25 mM HEPES, 100 mM NaCl, 1 mM ETDA, 1% Triton X-100, pH 7.5). This material was incubated overnight at 4° C. with 40 μl of streptavidin-agarose beads. The beads were washed with 3×1 ml of wash buffer (neutralization buffer+500 mM NaCl) and 2×1 ml of neutralization buffer. The dried beads were eluted with 50 μl of HEN/10+1%-mercaptoethanol. The eluted mixture was then analyzed by SDS-PAGE, followed by immunoblotting with anti-Flag-HRP (1:5000) or antibodies.
# (§2) The preceding experiments indicate that eNOS and its downstream effector JNK3 are required for SDF-1α-induced endothelial cell migration. However, the molecular mechanisms of eNOS-dependent regulation of JNK3 activity are not intuitive. In the course of exploring various potential regulatory mechanisms, we considered the possibility that regulation of JNK3 by eNOS was determined by suppression of dephosphorylation activities. When cells were incubated with sodium orthovanadate, an inhibitor of protein tyrosine and dual-specificity protein phosphatases, JNK phosphorylation increased both under basal conditions and, most prominently, after SDF-1α treatment (FIG. 3A). […] MKP7, a member of the dual-specificity family of protein phosphatases, interacts with the JNK3 scaffold protein β-arrestin2 (25). Located within the N-terminal catalytic domain of MKP7, the Cys^244 residue is highly sensitive to oxidation due to its low pKa and this oxidation is required for decreased MKP7 activity and sustained activation of JNK3 under certain conditions (26). […] MKP7 S-nitrosylation was also detected with another NO donor-DETA NONOate; the addition of DTT blocked its nitrosylation (data not shown). To further explore the nitrosylation of MKP7 by NO donors, SNOs in MKP7 were replaced with biotin (biotin switch), and peptides generated by trypsinization were purified by avidin chromatography and analyzed by MALDI-TOF and ESI-MS/MS. […]
# MKP7 [2] = molecular target: T1, MKP7 (Homo sapiens, UniProt Q9BY84, C244S); test: as above; assay type: biochemical
# T1 construct: the mutants of full-length MKP7, MKP7-C244S and MKP7-C244A; expressed in transfected cells; host or cells: HEK293T
# T1 sequence (Q9BY84 1-317 C244S): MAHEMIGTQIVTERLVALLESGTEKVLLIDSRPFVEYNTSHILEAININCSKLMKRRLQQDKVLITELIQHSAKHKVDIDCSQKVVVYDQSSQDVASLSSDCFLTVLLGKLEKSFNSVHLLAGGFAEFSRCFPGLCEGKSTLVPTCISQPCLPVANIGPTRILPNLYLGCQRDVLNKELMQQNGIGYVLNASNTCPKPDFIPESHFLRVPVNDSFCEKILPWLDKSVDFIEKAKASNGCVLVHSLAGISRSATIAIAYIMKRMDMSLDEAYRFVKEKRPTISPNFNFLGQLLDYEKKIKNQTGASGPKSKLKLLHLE
# Method: as §1, §2
# MKP7 [3] = molecular target: T1, MKP7; assay type: biochemical
# Method: (§4) Flag-MKP7 protein was prepared from the cells transfected with Flag-MKP7 by immunoprecipitation using Flag beads (Sigma). The precipitate was washed twice with lysis buffer containing high salt (1 M NaCl) followed by 2 washes with the reaction buffer. In vitro phosphatase reactions were carried out at 37° C. for 1 hour in I.V.P.A buffer (20 mM Tris⊕HCl, pH7.0, 0.1 mM MgCl2, 1 mM MnCl2, 1 ┌g/┌1 BSA, 1 mM DTT in reduced samples) with 25 ng active JNK3 purified protein (Upstate). The reaction was stopped by the addition of 2× loading buffer followed by western blotting analysis with phospho-specific JNK and JNK antibodies.
# (§5) To determine whether this S-nitrosylation event affected MKP7 activity, we performed an in vitro phosphatase activity analysis using activated JNK3 protein in a reaction with MKP7-concentrated cell lysates. […] The activities of these mutants were also evaluated using an in vitro phosphatase assay.
# MKP7 [4] = assay type: biochemical
# Method: as §4, §5
# BAECs [5] = test: Scratch wound healing assay; assay type: cell-based, bovine; conditions: L-NMMA pretreatment (1 mM or 5 mM, one hour) plus 50 ng/ml SDF-1alpha
# Method: For detection of cell migration, a wound healing assay was performed as previously described (40). BAECs were grown on 35 mm wells, the monolayer was scratched with a sterile disposable rubber policeman and the edge labeled with a traced line. After injury, the cells were gently washed with normal media without serum. EC migration from the edge of the injured monolayer was quantified by measuring the area between the wound edges before and the recovered area after injury using light microscopy (Eclipse TS100, 4× objective, Nikon) and the computer program ImageJ.
# To determine whether eNOS activation is required for SDF-1α-mediated endothelial cell migration, we performed scratch-wound healing and Boyden chamber migration assays in the presence of the NOS-specific inhibitor L-NMMA (19). Confluent BAECs were pretreated for one hour with 1 mM or 5 mM L-NMMA or vehicle prior to each assay. […] Similarly, cell migration in Boyden chambers was induced by SDF-1α (from 8±3 to 86±5 cells per field), but this increase in migration was inhibited by the pre-incubation of BAECs with L-NMMA (FIG. 1D). The involvement of eNOS in SDF-1α-induced endothelial cell migration was confirmed by treatment of cells with siRNAs specific for eNOS. […]
# BAECs [6] = test: Boyden chamber migration assay; assay type: cell-based, bovine
# Method: Boyden chamber assays were performed as previously described (40, 41) using a 48-well chamber apparatus (NeuroProbe, Cabin John, Md.). The lower chambers of the apparatus were filled with DMEM with or without SDF-1alpha and then covered with the collagen-coated filter and the upper chambers. Cells pretreated with or without the indicated inhibitors were then added to the upper chambers. After incubating for 6 h at 37° C., cells present on the lower surface were fixed, stained and identified with the 40× objective lens on a Nikon Eclipse TS 100 inverted microscope.
# To determine whether eNOS activation is required for SDF-1α-mediated endothelial cell migration, we performed scratch-wound healing and Boyden chamber migration assays in the presence of the NOS-specific inhibitor L-NMMA (19). Confluent BAECs were pretreated for one hour with 1 mM or 5 mM L-NMMA or vehicle prior to each assay. […] Endothelial cells were transfected with 1 of 3 different bovine eNOS-specific siRNAs, or mixture of all three, and 72 hours later cell lysates were examined by western blot analysis for levels of eNOS protein.
# JNK3 = test: JNK activation (phospho-JNK Western blot) in BAECs; assay type: cell-based, bovine; conditions: for SDF-1α-induced JNK phosphorylation in siRNA-transfected cells: BAECs, 50 ng/ml SDF-1alpha for 10 minutes
# Method: (§3) Cells were harvested in lysis buffer (1% Triton X-100, 50 mM Tris, pH 7.4, 150 mM NaCl, 1 mM Na3VO4 and 0.1% protease inhibitor tablet; Roche) and clarified by centrifugation at 16,000 g. Equal amounts of proteins were incubated with a specific antibody overnight at 4° C. with gentle rotation. Protein A/G Plus-agarose beads (Santa Cruz Biotechnology, Santa Cruz, Calif.) were used to pull down the antibody complexes. Afterward, beads were washed with lysis buffer, and immune complexes were separated by SDS-PAGE. Total cell lysates were separated by SDS-PAGE and transferred to nitrocellulose membranes.
# Mitogen-activated protein kinases (MAPKs), including ERK1/2 and p38, have been reported to enhance angiogenesis (20, 21). However, the role of JNK in angiogenesis remains controversial, with studies showing both positive and negative outcomes of JNK activation. In order to determine which MAPKs are involved in SDF-1α-induced endothelial cell migration, we screened the activities and expression levels of ERK1/2, p38 and JNK following treatment of BAECs with SDF-1α. […] SDF-1α activated both JNK and ERK1/2 in a dose-dependent manner (FIG. 2B). […] Protein and mRNA for all three JNK isoforms, JNK1, JNK2 and JNK3, can be found in BAECs (FIGS. 5, A&B). In order to determine which JNK protein(s) was activated by SDF-1α in these cells we used a previously described assay (22). Exogenous JNK1, JNK2 and JNK3 proteins containing Flag or GFP-epitopes were transiently expressed in BAECs and their activities were determined via western blotting with a phospho-JNK antibody following SDF-1α treatment. […] To confirm the finding that JNK3 is the only JNK entity activated by SDF-1α, we transfected cells with siRNAs for each of the JNK proteins and then tested the effect of each siRNA for the ability to suppress SDF-1α-induced JNK activation. […] Because JNK3 was the only SDF-1α-activated JNK in endothelial cells in our studies (FIG. 2C & FIG. 5, C), we consider the phospho-JNK signals in western blots with anti-phospho-JNK antibody as the signals for activated JNK3.
# ERK1/2 = ERK1/2 activation, Western blot in BAECs; assay type: cell-based, bovine; conditions: L-NMMA, SDF-1α-treated BAECs
# Method: as §3
# Mitogen-activated protein kinases (MAPKs), including ERK1/2 and p38, have been reported to enhance angiogenesis (20, 21). However, the role of JNK in angiogenesis remains controversial, with studies showing both positive and negative outcomes of JNK activation. In order to determine which MAPKs are involved in SDF-1α-induced endothelial cell migration, we screened the activities and expression levels of ERK1/2, p38 and JNK following treatment of BAECs with SDF-1α. […] SDF-1α activated both JNK and ERK1/2 in a dose-dependent manner (FIG. 2B). […] Exogenous JNK1, JNK2 and JNK3 proteins containing Flag or GFP-epitopes were transiently expressed in BAECs and their activities were determined via western blotting with a phospho-JNK antibody following SDF-1α treatment. […]
# BAECs [7] = test: In vitro Matrigel angiogenesis (tube formation) assay; assay type: cell-based, bovine; conditions: siRNA-expressing cells
# Method: Endothelial cell tube formation was analyzed with the Matrigel-based tube formation assay (40, 41). Chilled 24-well plates were coated with growth factor-reduced Matrigel (Becton Dickinson, San Jose, Calif.) that was polymerized at 37° C. for 30 min. BAECs were transfected with siRNA constructs with the Amaxa Nucleofector electroporation reagent. Three days later, cells were trypsinized, and plated at equal numbers into each Matrigel-coated well. After 18 hours of incubation in the absence or presence of SDF-1alpha, the formation of tubes was photographed (Eclipse, 10× objective, TS100Nikon). Images were quantified with ImageJ.
# Endothelial cell migration is a critical step for tube formation during angiogenesis. To test the importance of JNK3 in highly ordered cell assembly processes, we examined the effect of JNK knockdown with siRNAs on the formation of capillary-like tubes in Matrigel. BAECs were transfected with JNK1 siRNA, JNK2 siRNA, JNK3 siRNA or control siRNA. After 72 hours, cells were plated on Matrigel in medium containing 50 ng/ml SDF-1α.
# [8] = Myc-MKP7, GSNO 500 μM, 10 minutes
molecule,measurement,setting,value
NCCN(CCN)/[N+]([O-])=N/O [DETA NONOate],S-nitrosylation of MKP7,MKP7 [1]; [8],detected
O[C@@H](CS)[C@@H](O)CS [DTT],S-nitrosylation of MKP7,MKP7 [1]; [8],blocked
"N[C@@H](CCC(=O)N[C@@H](CSN=O)C(=O)NCC(=O)O)C(=O)O [GSNO, nitrosoglutathione]",nitrosylation of MKP7-ΔC (C244S) compared to MKP7-ΔC,MKP7 [2],markedly attenuated
same,S-nitrosylation of MKP7,MKP7 [1],S-nitrosylated
same,nitrosylation of MKP7-WT and MKP7-ΔC,MKP7 [1],strongly nitrosylated
same,phosphatase activity of MKP7-ΔC (C244S),MKP7 [3],essentially unchanged
same,MKP7 phosphatase activity,MKP7 [4],markedly inhibited
same,phosphatase activity of MKP7-WT and MKP7-ΔC,MKP7 [4],decreased dramatically
"CNC(=N)NCCC[C@H](N)C(=O)O [L-NMMA, reference compound]",BAEC migration towards the wounded area,BAECs [5],17.7±2.4%
same,SDF-1α-induced increase in migration in Boyden chambers,"BAECs [6]; pre-incubation with L-NMMA, 50 ng/ml SDF-1alpha",inhibited
same,JNK3 activation induced by SDF-1α,"JNK3; 0.5-5 mM L-NMMA, 50 ng/ml SDF-1alpha for 5 minutes",specifically inhibited
same,ERK activation,ERK1/2,not affected
Oc1c2ccccc2c2c3c(cccc13)N=N2 [SP600125],SDF-1α-mediated endothelial cell migration,"BAECs [6]; 10 μM SP600125, 50 ng/ml SDF-1alpha",27±3 cells
same,SDF-1α-mediated endothelial cell migration,"BAECs [6]; 50 μM SP600125, 50 ng/ml SDF-1alpha",20±2 cells
N#CC(=C(/N)Sc1ccccc1N)/C(C#N)=C(\N)Sc1ccccc1N [U0126],endothelial cell migration induced by SDF-1α,BAECs [6]; 20 μM U0126 (data not shown),decreased
"[Na+].[Na+].[Na+].[O]=[V]([O-])([O-])[O-] [sodium orthovanadate, reference compound]",JNK phosphorylation,"JNK3; Na3VO4 10, 100, 500 μM, basal and after 50 ng/ml SDF-1α",increased
"JNK1 siRNA: AUAACAAAUCCCUUGCCUGACUGGC (SEQ ID NO:4) (listed as RNA, chemistry not given here)",SDF-1α-induced JNK phosphorylation in siRNA-transfected cells,JNK3,significantly enhanced
same,tube length,BAECs [7]; with 50 ng/ml SDF-1α,438±108 μm
same,tube length,BAECs [7]; without SDF-1α,88±23 μm
"JNK2 siRNA: AGUUGAGUCU GCCACUUGUACACUG (SEQ ID NO:5) (AGUUGAGUCUGCCACUUGUACACUG; listed as RNA, chemistry not given here)",SDF-1α-induced JNK phosphorylation in siRNA-transfected cells,JNK3,significantly enhanced
same,tube length,BAECs [7]; with 50 ng/ml SDF-1α,504±93 μm
same,tube length,BAECs [7]; without SDF-1α,121±61 μm
